This note sets out measurements from patent US20240166612A1, “ARYLTHIOETHER ACETAMIDE AND RELATED COMPOUNDS AND THEIR USE IN TREATING MEDICAL CONDITIONS” (X-Biotix Therapeutics, Inc., priority 2021, published 2024).

In test [1] the target is T1, recombinant LpxA enzyme (P. aeruginosa) (Pseudomonas aeruginosa, UniProt Q9X6P4).
T1 sequence (Q9X6P4 1-258): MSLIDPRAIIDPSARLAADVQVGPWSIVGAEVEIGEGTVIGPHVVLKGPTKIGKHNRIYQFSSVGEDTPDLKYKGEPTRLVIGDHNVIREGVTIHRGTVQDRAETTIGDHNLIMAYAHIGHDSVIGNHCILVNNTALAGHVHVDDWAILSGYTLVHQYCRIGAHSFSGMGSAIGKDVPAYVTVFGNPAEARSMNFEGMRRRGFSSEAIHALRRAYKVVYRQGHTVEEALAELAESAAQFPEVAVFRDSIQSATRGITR
Put plainly: LpxA in vitro substrate acylation assay with RapidFire MS analysis (P. aeruginosa). The format is biochemical. To be noted: P. aeruginosa enzyme 0.5 nM, PaACP-C10, 30 min.

Test [2] has as its target T2, recombinant LpxD enzyme (P. aeruginosa) (Pseudomonas aeruginosa, UniProt Q9HXY6).
T2 sequence (Q9HXY6 1-353): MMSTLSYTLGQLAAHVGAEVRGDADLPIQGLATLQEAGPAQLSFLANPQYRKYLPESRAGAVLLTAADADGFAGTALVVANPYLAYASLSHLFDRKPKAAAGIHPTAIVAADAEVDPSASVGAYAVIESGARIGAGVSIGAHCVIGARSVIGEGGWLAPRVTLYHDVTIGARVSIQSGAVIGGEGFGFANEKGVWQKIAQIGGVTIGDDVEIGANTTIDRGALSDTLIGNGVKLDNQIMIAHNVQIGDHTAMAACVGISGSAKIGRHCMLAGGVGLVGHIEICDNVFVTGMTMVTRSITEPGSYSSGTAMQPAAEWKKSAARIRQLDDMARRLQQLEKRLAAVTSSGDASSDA
Put plainly: LpxD in vitro substrate acylation assay with RapidFire MS analysis (P. aeruginosa). To be noted: P. aeruginosa enzyme 10 nM, EcACP-C10, 120 min. The format is biochemical. As to the method: Exemplary compounds from the above Examples were tested for ability to inhibit LpxD activity using an in vitro substrate acylation assay with RapidFire™ MS analysis. Assay procedures and results are described below.
Reactions were carried out in a final volume of 30 μL with 25 mM HEPES (pH 7.3), 150 mM NaCl, 2 mM DTT, 0.01% BSA, 5 μM UDP-3-O[R-3-Hydroxymyristoyl]-glucosamine (produced at Charles River according to literature procedures, and partially purified at Evotec), 10 nM recombinant LpxD enzyme (P. aeruginosa or E. coli, produced at Evotec), 1 μM decanoyl E. coli acyl-carrier protein (EcACP-C10, produced at Evotec), and 1% DMSO containing test compound. After 120 min incubation at room temperature, reactions were stopped by addition of 30 μL of 10% TCA in water.
(§1) Samples were centrifuged (4350 rpm, 4° C., 5 min), and then subjected to RapidFire™ MS analysis on an Agilent RapidFire 300 coupled to an Agilent 6460 triple-quadrupole mass spectrometer. Analytes were retained on a C4 (type A) cartridge using the following solvents and flow rates: • Pump 1—H2O with 5 mM NH4OAc at 2.0 mL/min, • Pump 2—MeOH/H2O (90/10) at 1.5 mL/min, • Pump 3—MeOH/H2O (90/10) at 0.5 mL/min, and • Pump 4—ACN (organic)/H2O (aqueous). Substrate and product of the reaction were detected in negative mode ESI-MS/MS by MRM (multiple reaction monitoring) of transitions 790.3/385.0 (UDP-3-O[R-3-Hydroxymyristoyl]-glucosamine substrate) and 960.4/385.0 (UDP-3-O—[R-3-Hydroxymyristoyl]-N—[R-3-hydroxydecanoyl]-glucosamine product).
For IC50 determinations, peak areas of the substrate and product were compared to compute the proportion of product formed by the LpxD enzyme at each compound concentration. The fractional activity was converted to percentage inhibition and plotted against compound concentration in Evotec's proprietary platform Aplus and fit using a four-parameter logistic using non-linear regression to yield the IC50 value.

For test [3], the system named is Wild-type P. aeruginosa PAO1. As to the kind of experiment: Broth microdilution MIC, wild-type P. aeruginosa PAO1. The format is cell-based. As to conditions: Pseudomonas aeruginosa; wild-type P. aeruginosa PAO1, 37° C., 18 h; read-out: PAO1 WT MIC. (In broth dilution the organism is exposed to a series of concentrations in liquid medium.)
A further test concerns P. aeruginosa PAO397. Put plainly: Broth microdilution MIC, P. aeruginosa PAO397. The format is cell-based. To be noted: Pseudomonas aeruginosa, PAO397, 18 h, read-out: PAO397 KO MIC.
Test [4] deals with E. coli JW0452-3 (BW25113 JacrA::kan). As to the kind of experiment: Broth microdilution MIC, E. coli JW0452-3. The format is cell-based. As to conditions: Escherichia coli, BW25113, 18 h, read-out: E. coli KO MIC. The method, then: Exemplary compounds from the above Examples were tested to determine their minimum inhibitory concentration (MIC) for exemplary strains of Escherichia and Pseudomonas bacteria using broth microdilution methods. Assay procedures and results are described below.
Broth microdilution assays were conducted according to Clinical and Laboratory Standards Institute guidelines (CLSI, M07-A^11: Clinical and Laboratory Standards Institute. Methods for Dilution Antimicrobial Susceptibility Tests for Bacteria that Grow Aerobically; Approved Standard-11th Edition. Wayne, PA: CLSI, 2018). Briefly, bacterial suspensions were adjusted to a density equivalent to a 0.5 McFarland standard and diluted in sterile, cation-adjusted Mueller-Hinton broth (Beckton Dickinson) to yield a final inoculum between 2×10^5 and 8×10^5 colony-forming units (CFU)/mL. An inoculum volume of 98 μL was added to wells containing 2 μL of 2-fold serial dilutions of drug (prepared in DMSO). All inoculated microdilution trays were incubated in ambient air at 37° C. for 18 h. […] Performance of the assay was monitored by the use of laboratory quality-control strains (S. aureus ATCC 29213 and P. aeruginosa ATCC 27853) and levofloxacin, a compound with a defined MIC spectrum, in accordance with CLSI guidelines (CLSI, M100Ed29: Clinical and Laboratory Standards Institute. Performance Standards for Antimicrobial Susceptibility Testing, 29th Edition. Wayne, PA: CLSI, 2018).
Multiple enterobacteriaceae strains were tested, including both wild-type strains and multi-drug resistance pump deficient mutants. Specific strains tested included the following: • Wild-type P. aeruginosa PAO1, • P. aeruginosa PAO1 ΔmexABoprM—Disabled multi-drug efflux system Δ(MexAB-OprM), • P. aeruginosa PAO397—PAO1Δ(mexAB-oprM) Δ(mexCD-oprJ) Δ(mexEF-oprN) Δ(mexJK) Δ(mexXY) ΔopmH, • P. aeruginosa LESB58—Clinical isolate; colistin-resistant, isolated in the United Kingdom in 1988 from a patient with cystic fibrosis • E. coli JW0452-3 (BW25113 JacrA::kan)—Disabled multi-drug efflux system (AcrAB-TolC). […]

The target of test [5] is recombinant LpxA enzyme (E. coli) (Escherichia coli, UniProt P0A722). Put plainly: LpxA in vitro substrate acylation assay with RapidFire MS analysis (E. coli). The test is classed as biochemical. As to the method:
Exemplary compounds from the above Examples were tested for ability to inhibit LpxA activity using an in vitro substrate acylation assay with RapidFire™ MS analysis. Assay procedures and results are described below.
Reactions were carried out in a final volume of 30 μL with 25 mM HEPES (pH 7.3), 150 mM NaCl, 2 mM DTT, 0.01% BSA, 5 μM UDP-GlcNac, recombinant LpxA enzyme (0.5 nM P. aeruginosa or 1.0 nM E. coli, both produced at Evotec), 0.5 μM acyl-transfer reagent (decanoyl P. aeruginosa acyl-carrier protein [PaACP-C10] or myristoyl E. coli acyl-carrier protein [EcACP-C1-4], both produced at Evotec), and 1% DMSO containing test compound. After 30 min incubation at room temperature, reactions were stopped by addition of 30 μL of 10% TCA in water.
as §1, with “606.0/385.0 (UDP-GlcNAc” for “790.3/385.0 (UDP-3-O[R-3-Hydroxymyristoyl]-glucosamine”, “776.2/385.0 (UDP-3-O—(R-3-hydroxydecanoyl)-GlcNAc product, for P. aeruginosa LpxA assay) or 832.2/385.0 (UDP-3-O—(R-3-hydroxymyristoyl)-GlcNAc product, for E. coli LpxA assay).” for “960.4/385.0 (UDP-3-O—[R-3-Hydroxymyristoyl]-N—[R-3-hydroxydecanoyl]-glucosamine product).”
For IC50 determinations, peak areas of the substrate and product were compared to compute the proportion of product formed by the LpxA enzyme at each compound concentration.

The subject of test [6] is P. aeruginosa PAO1 ΔmexABoprM. As to the kind of experiment: Broth microdilution MIC, P. aeruginosa PAO1 ΔmexABoprM. The test is classed as cell-based. As to conditions: Pseudomonas aeruginosa, PAO1, 18 h, read-out: PAO1 KO MIC.

In brackets after ≈: the same amount, converted by molar mass.

As usually defined, the IC50 is the concentration needed to halve the response being measured. By MIC is commonly meant the lowest concentration that inhibits growth of the organism.

recombinant LpxA enzyme (E. coli), sequence (P0A722 whole entry): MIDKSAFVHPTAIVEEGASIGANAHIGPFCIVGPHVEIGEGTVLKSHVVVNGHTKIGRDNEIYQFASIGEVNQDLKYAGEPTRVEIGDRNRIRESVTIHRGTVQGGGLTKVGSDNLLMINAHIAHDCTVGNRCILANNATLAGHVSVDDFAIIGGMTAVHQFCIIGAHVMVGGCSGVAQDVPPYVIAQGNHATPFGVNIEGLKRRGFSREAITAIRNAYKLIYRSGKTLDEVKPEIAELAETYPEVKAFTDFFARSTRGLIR

In the case of `N#Cc1ccc(CN(CC(=O)NC2CNC2)C(=O)CSc2ccccc2Cl)cc1` [compound 5], the IC50 was 0.1 to 1 µM in test [1] and more than 20 µM in test [2]. The MIC was more than 64 µg/mL in test [3], 16 to 64 µg/mL (≈ 37.3 to 149 µM) in the test on P. aeruginosa PAO397 and 16 to 64 µg/mL (≈ 37.3 to 149 µM) in test [4].
For `N#Cc1ccc(CN(Cc2nnc(N)o2)C(=O)CSc2cc(-c3c[nH]cn3)ccc2Cl)c(F)c1` [Compound No. 62, N-[(5-Amino-1,3,4-oxadiazol-2-yl)methyl]-2-[2-chloro-5-(1H-imidazol-4-yl)phenyl]sulfanyl-N-[(4-cyano-2-fluoro-phenyl)methyl]acetamide], the IC50 in test [5] fell in the range of 5 to 20 µM; in test [1] it was 0.1 to 1 µM. Besides, the results for the MIC (in test [3]; with P. aeruginosa PAO397; in test [4]) were more than 64 µg/mL, 1 to 16 µg/mL (≈ 2.01 to 32.1 µM) and 16 to 64 µg/mL (≈ 32.1 to 129 µM), respectively.
As for `CS(=O)(=O)Nc1ccc(CN(Cc2nnc(N)o2)C(=O)CSc2ccccc2Cl)cc1` [compound 46], the IC50 was more than 20 µM in test [5] and 0.02 to 0.1 µM in test [1]. Also, the MIC was more than 64 µg/mL in test [3], more than 64 µg/mL in test [6], 1 to 16 µg/mL (≈ 2.07 to 33.2 µM) in the test with P. aeruginosa PAO397 and 16 to 64 µg/mL (≈ 33.2 to 133 µM) in test [4].
